# In patent US8173360B2, “Cell death inhibitor” (Takeda Pharmaceutical Company Limited, priority 2002, dated 2012):
# Tests used:
# [1] = molecular target: T1, rat MIF (Rattus norvegicus, UniProt P30904); assay: Binding to immobilized rat MIF by surface plasmon resonance (BIACORE 3000); settings: 10 μM in PBS, rat MIF immobilized on sensor chip CM5
# T1 construct: the region encoding MIF was amplified from the complementary DNA (cDNA) library of rat and mouse brains; made in house; host or cells: Escherichia coli BL21 (DE3)
# Protocol: The binding of rat MIF obtained in REFERENCE EXAMPLE 6 to Compound 1 obtained in REFERENCE EXAMPLE 1 was analyzed using BIACORE 3000 (manufactured by Biacore).
# Rat MIF was immobilized on a sensor chip CM5 (manufactured by Biacore). Then, phosphate buffered saline (PBS) containing 10 μM of Compound 1 was flown over the sensor chip and changes in the surface plasmon resonance signal were monitored as the binding of the compound to rat MIF.
# Rat MIF obtained in REFERENCE EXAMPLE 6 was immobilized on a sensor chip CM5 (manufactured by Biacore Co., Ltd.). Thereafter, phosphate buffered saline (PBS) containing 10 μM of 3-[2-(4-oxo-4H-1,3-benzothiazin-2-yl)-4-pyridyl]propionic acid (the compound of EXAMPLE 308 described in WO 03/020719) was flown over the sensor chip and changes in surface plasmon resonance signal were monitored as the binding of the compound to rat MIF.
# [2] = tested on: primary cardiomyocytes derived from rat neonates; assay: Inhibition of serum depletion-induced myocardial cell death (WST-8 viable cell count); format: cell-based; settings: serum depletion, 4 days, WST-8 viable cell count
# Description: Neonates (within one day after birth) were obtained from pregnant Wistar rats purchased from Charles River Japan, Inc. and anesthetized with ether. After sterilization with 70% ethanol, the heart was removed with forceps. After washing with phosphate buffered saline (manufactured by Takara Co., Ltd., T900), the heart removed was minced with surgical scissors. The pieces of tissue were washed 4 or 5 times with phosphate buffered saline to remove most of non-cardiomyocytes derived from blood. To the pieces of tissue corresponding to 10 neonates, 5 ml of an enzyme solution [which is a solution of trypsin (1.25 mg) (manufactured by Difco) and collagenase (0.25 mg) (manufactured by Sigma) in phosphate buffer (1 ml)] was added. The mixture was stirred for 15 minutes with a stirrer while maintaining at 37° C. After 2.5 ml of the enzyme solution was replenished, the mixture was stirred for further 15 minutes, and this procedure was repeated twice. Subsequently, Medium 199 (manufactured by Gibco) containing 10% fetal cow serum (manufactured Biowicker, Inc.) was added to the mixture in a half volume of the enzyme solution to terminate the enzymatic reaction. After filtering through a cell strainer (manufactured by Falcon), the mixture was centrifuged at 400×g for 5 minutes to collect the cells.
# The cells were then recovered, filtered through a cell strainer and centrifuged at 400×g for 5 minutes to collect primary cardiomyocytes derived from rat neonates.
# Next, the primary cardiomyocytes derived from rat neonates (corresponding 10 neonates) were suspended in 2 ml of a hypotonic solution [solution obtained by dissolving NH4Cl (8.29 g), KHCO3 (1.0 g) and EDTA/2Na (ethylenediaminetetraacetic acid disodium; manufactured by Dojin Chemical Laboratory) (37 mg) in water (1 L)]. The suspension was allowed to stand for 3 minutes to disrupt erythrocytes. To the suspension 10 ml of Medium 199 containing 10% fetal cow serum was added, and the mixture was centrifuged at 400×g for 5 minutes to collect the primary cardiomyocytes derived from rat neonates. […] An aliquot of the cardiomyocytes suspension obtained was taken out and 0.3% trypan blue was added thereto. The mixture was gently stirred and the count of cardiomyocytes was counted with a hemocytometer.
# Incubation was continued for further 4 days to induce cell death. […]
# The mean value (±SD) in the minimum effective concentration of Compound 1 required for inhibiting the cell death was 0.015±0.011 μM. The concentration of Compound 1 required for increasing the mean cell count by 30% when compared to the cell count without the addition of Compound 1 was determined to be the minimum effective concentration. […]
# [3] = tested on: Human normal articular chondrocytes; assay: Inhibitory activity against cell death of human articular chondrocytes induced by NO (MTT); format: cell-based; settings: 100 μM; 1.5 mM sodium nitroprusside 5 hours; mean ±SD
# Protocol: Human normal articular chondrocytes (Clonetics, Inc.) were proliferated in a growth medium for articular chondrocytes (CGM, Clonetics, Inc.) in monolayer culture. Then, the cells were suspended in 1.2% alginate-containing 155 mM NaCl solution in a density of 2.0×10^6 cells/ml, and beads having a 2 mm diameter were prepared using a syringe with a 22 gauge needle. The beads were incubated in a differentiation medium for articular chondrocytes (CDM, Clonetics, Inc.) charged in a 96-well round-bottomed plate (1 bead/well, manufactured by FALCON) for further 7 days. The medium was replaced by α-modified minimum essential medium containing Compound 1 (0.1 μM or 1 μM) and 10% fetal cow serum, followed by incubation for 48 hours and then for 5 hours in the co-presence of 1.5 mM sodium nitroprusside (NO generator, manufactured by Sigma). As control drugs, caspase 3 inhibitor (Z-DEVD-FMK (SEQ ID NO: 5), 100 μM, manufactured by R & D Systems, Inc.) and caspase 9 inhibitor (Z-LEHD-FMK (SEQ ID NO: 6), 100 μM, manufactured by R & D Systems, Inc.) were similarly monitored for their activities. After completion of the experiment, alginate was removed and the cell survival rate was determined by the MTT technique.
# In the table, the numerical values indicate mean values (±SD) of the cell death inhibition rates as converted from the measurement data by the MTT technique. The cell survival rate after the addition of 1.5 mM sodium nitroprusside (without addition of either Compound 1 or control drug) was 31.9%.
Compound,myocardial cell death inhibitory activity [2],Cell Death Inhibition Rate [3],also measured
"O=C(O)CCc1ccnc(-c2nc(=O)c3ccccc3s2)c1 [3-[2-(4-oxo-4H-1,3-benzothiazin-2-yl)-4-pyridyl]propionic acid]",,,binding of the compound to rat MIF (changes in surface plasmon resonance signal) [1]: could be selected as the substance binding to MIF
hemin [reference compound],exhibit the activity of inhibiting myocardial cell death,,
"C=CC1=C(C)c2cc3[n-]c(cc4[n-]c(cc5nc(cc1n2)C(C)=C5C=C)c(C)c4CCC(=O)O)c(CCC(=O)O)c3C.O.[Fe+2] [hematin, reference compound]",exhibit the activity of inhibiting myocardial cell death,,
"Z-LEHD-FMK (Z N-cap, FMK C-terminus) [reference compound]",,62.7 ± 10.6,
Z-DEVD-FMK [reference compound],,49.7 ± 10.3,
